One may read the IC50 as the concentration needed to halve the response being measured.

Holding throughout (format): biochemical
The target in experiment [1] is T1, HDAC1/MTA1(aa: 162–546)/RBBP4 core NuRD complex (HMR) (Homo sapiens, UniProt Q09028+Q13330+Q13547).
T1 construct: made in house; host or cells: HEK293F
Briefly: Boc-Lys HDAC inhibition assay. Particulars: 50 nM complex, 20 min preincubation rt, 100 μM Boc-(Ac)Lys-AMC, 37 °C 30 min, technical replicates N = 2. On the procedure:
(§1) Inhibition assays with various peptide inhibitors were performed using a fluorescence-based assay. The inhibitor peptides were initially dissolved in 5% dimethyl sulfoxide (DMSO) at a stock concentration of 25 mM before being further diluted in the HDAC assay buffer (50 mM Tris/HCl, pH 7.5, 150 mM NaCl). Serial dilutions (1:3) of the inhibitor were prepared, starting at a concentration of 500 μM. HDAC complexes were diluted to a final concentration of 50 nM and incubated with the inhibitor for 20 min at rt. The Boc-(Ac)Lys-AMC substrate was added at a final concentration of 100 μM The final volume of the reaction was 50 μL. The reaction was incubated at 37 °C, 150 rpm, for 30 min, before a developer (50 mM Tris, pH 7.5, 100 mM NaCl, 10 mg/mL trypsin) was added. The reaction was incubated with the developer for 10 min before being measured (PerkinElmer, 2030 multilabel reader, VICTOR X5, excitation 335 nm, emission 460 nm). The absorbance of the buffer as the blank control was subtracted from the HDAC activity, and IC50 calculations were performed using the nonlinear regression log(inhibitor) vs response equation Y = bottom + (top – bottom)/(1+10^(X–Log IC50)) in Graphpad Prism 9.

Another experiment concerns the target T2, RERE complex (Homo sapiens, UniProt Q13547+Q9P2R6).
T2 construct: made in house; host or cells: HEK293F
Put plainly: Boc-Lys HDAC inhibition assay. Particulars: HDAC complexes tables; 50 nM complex, 100 μM Boc-(Ac)Lys-AMC, 37 °C 30 min; technical replicates N = 2.
Excerpt: (§2) Finally, we directed our attention toward assessing how the results from the experiments with HMR would be common to the other known class I HDAC corepressor complexes. RERE, MIER1, CoREST, HMR, MiDAC, Sin3A, and SMRT were expressed and purified, and the concentrations were normalized based on the concentration of HDAC1 or HDAC3 (Figure 4A). We determined the potency of H3(23–29)K27Hd 12 and H4(12–18)K16Hd 16 against RERE, MIER1, CoREST, NuRD, MiDAC, Sin3A, and SMRT (Figure 4B). In addition, we repeated the H3(23–29)K27Hd alanine scan experiment for each of these complexes to assess whether or not the importance of Lys23 for maintaining potency against HMR was replicated across the other complexes (Figure 4C).
as §1

The next experiment concerns the target T3, SMRT complex (HDAC3) (Homo sapiens, UniProt O15379).
T3 construct: made in house; host or cells: HEK293F
Briefly: Boc-Lys HDAC inhibition assay. Particulars: HDAC complexes tables; 50 nM complex, 100 μM Boc-(Ac)Lys-AMC, 37 °C 30 min; technical replicates N = 2.
Excerpt: as §2, §1

In another experiment the target is T4, CoREST complex (Homo sapiens, UniProt Q13547+Q9UKL0).
T4 construct: made in house; host or cells: HEK293F
Put plainly: Boc-Lys HDAC inhibition assay. Particulars: HDAC complexes tables; 50 nM complex, 100 μM Boc-(Ac)Lys-AMC, 37 °C 30 min; technical replicates N = 2.
Excerpt: as §2, §1

The target in another experiment is T5, MiDAC complex (Homo sapiens, UniProt Q13547+Q6PJG2+Q9H147).
T5 construct: made in house; host or cells: HEK293F
Put plainly: Boc-Lys HDAC inhibition assay. Particulars: HDAC complexes tables; 50 nM complex, 100 μM Boc-(Ac)Lys-AMC, 37 °C 30 min; technical replicates N = 2.
Excerpt: as §2, §1

Another experiment has as its target T6, MIER1 complex (Homo sapiens, UniProt Q13547+Q8N108).
T6 construct: made in house; host or cells: HEK293F
Briefly: Boc-Lys HDAC inhibition assay. Particulars: HDAC complexes tables; 50 nM complex, 100 μM Boc-(Ac)Lys-AMC, 37 °C 30 min; technical replicates N = 2.
Excerpt: as §2, §1

Experiment [2] addresses T1, HDAC1/MTA1(aa: 162–546)/RBBP4 core NuRD complex (HMR). Put plainly: Caliper deacetylation assay (rate-of-turnover of substrate peptides). To be noted: 125 nM HMR, 2 μM peptide; for Initial Rate of HMR against histone peptides: Rate (% conversion min-1): 50 mM Tris/HCl pH 7.5, 50 mM NaCl, 5% glycerol, linear fit of first 8 min, Caliper EZ Reader II, technical replicates N = 2. As to the method:
The acetyl-lysine-containing library (compounds 1–8) was assessed for the initial rate at which they were deacetylated by the HMR complex (Figure 2A).
Reactions (30 μL) contained 125 nM HMR and 2 μM fluorescein-labeled peptides (peptides 1–8) in 50 mM Tris/HCl, pH 7.5, 50 mM NaCl, and 5% glycerol. The deacetylase reaction was recorded over a 30 min period, every 90 s, using a Caliper EZ Reader II System (Caliper Life Sciences, http://www.caliperls.com). The initial rates were calculated using the formula Y = Y-intercept + slope × X during the first 8 min of the reaction using GraphPad Prism 9.

[3] abbreviates: inhibitor library experiment, fluorescence, read-out: IC50 of HMR against histone peptide library.
Setting [4] is: alanine scan / H4K12Hd experiments, read-out: IC50 of HMR against H3 K27Hd, H4 K16Hd and H4K12Hd peptides.

Like-named read-outs stand apart in the source and are kept apart here. Residues, ends and D or L forms follow the SMILES beside them. No end group written: not given here.

T1 sequence (Q13547 whole entry, species assumed): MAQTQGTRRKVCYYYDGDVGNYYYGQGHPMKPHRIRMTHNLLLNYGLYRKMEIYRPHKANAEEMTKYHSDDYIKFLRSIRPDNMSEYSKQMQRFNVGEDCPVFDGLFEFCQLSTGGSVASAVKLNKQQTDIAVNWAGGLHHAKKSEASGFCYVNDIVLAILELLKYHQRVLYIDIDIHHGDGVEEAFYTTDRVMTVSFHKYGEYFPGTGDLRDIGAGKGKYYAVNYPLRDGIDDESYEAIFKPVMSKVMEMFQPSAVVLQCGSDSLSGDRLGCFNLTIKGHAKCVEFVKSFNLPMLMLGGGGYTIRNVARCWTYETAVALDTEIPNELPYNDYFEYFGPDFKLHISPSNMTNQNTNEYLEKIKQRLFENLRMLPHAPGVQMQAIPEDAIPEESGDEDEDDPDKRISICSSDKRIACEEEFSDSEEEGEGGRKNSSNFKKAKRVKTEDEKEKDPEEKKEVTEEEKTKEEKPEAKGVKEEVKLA
T1 sequence (Q13330 162-546 partner limits assumed, species assumed): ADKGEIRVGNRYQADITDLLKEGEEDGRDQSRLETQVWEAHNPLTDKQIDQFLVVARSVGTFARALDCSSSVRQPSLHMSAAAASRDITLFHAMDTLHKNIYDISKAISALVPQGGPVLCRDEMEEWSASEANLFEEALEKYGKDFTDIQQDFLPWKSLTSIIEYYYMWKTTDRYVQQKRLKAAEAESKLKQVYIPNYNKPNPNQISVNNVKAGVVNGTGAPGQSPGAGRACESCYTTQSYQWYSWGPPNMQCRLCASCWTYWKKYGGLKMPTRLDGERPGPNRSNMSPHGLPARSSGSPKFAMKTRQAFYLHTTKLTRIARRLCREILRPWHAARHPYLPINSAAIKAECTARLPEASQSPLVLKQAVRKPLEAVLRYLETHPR
T1 sequence (Q09028 whole entry partner, species assumed): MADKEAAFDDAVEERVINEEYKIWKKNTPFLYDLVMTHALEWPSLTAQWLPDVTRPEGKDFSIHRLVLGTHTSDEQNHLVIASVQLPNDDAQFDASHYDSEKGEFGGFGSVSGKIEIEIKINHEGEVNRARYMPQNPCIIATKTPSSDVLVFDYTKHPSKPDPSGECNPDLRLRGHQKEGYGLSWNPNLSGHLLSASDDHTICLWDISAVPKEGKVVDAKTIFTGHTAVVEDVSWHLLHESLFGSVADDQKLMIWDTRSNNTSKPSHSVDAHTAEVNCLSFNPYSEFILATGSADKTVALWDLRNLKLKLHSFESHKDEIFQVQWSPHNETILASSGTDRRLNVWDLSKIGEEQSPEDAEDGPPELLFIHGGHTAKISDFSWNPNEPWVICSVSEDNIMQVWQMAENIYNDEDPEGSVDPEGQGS
T2 sequence (Q13547 whole entry): as the sequence (Q13547 whole entry, species assumed) above
T2 sequence (Q9P2R6 whole entry partner): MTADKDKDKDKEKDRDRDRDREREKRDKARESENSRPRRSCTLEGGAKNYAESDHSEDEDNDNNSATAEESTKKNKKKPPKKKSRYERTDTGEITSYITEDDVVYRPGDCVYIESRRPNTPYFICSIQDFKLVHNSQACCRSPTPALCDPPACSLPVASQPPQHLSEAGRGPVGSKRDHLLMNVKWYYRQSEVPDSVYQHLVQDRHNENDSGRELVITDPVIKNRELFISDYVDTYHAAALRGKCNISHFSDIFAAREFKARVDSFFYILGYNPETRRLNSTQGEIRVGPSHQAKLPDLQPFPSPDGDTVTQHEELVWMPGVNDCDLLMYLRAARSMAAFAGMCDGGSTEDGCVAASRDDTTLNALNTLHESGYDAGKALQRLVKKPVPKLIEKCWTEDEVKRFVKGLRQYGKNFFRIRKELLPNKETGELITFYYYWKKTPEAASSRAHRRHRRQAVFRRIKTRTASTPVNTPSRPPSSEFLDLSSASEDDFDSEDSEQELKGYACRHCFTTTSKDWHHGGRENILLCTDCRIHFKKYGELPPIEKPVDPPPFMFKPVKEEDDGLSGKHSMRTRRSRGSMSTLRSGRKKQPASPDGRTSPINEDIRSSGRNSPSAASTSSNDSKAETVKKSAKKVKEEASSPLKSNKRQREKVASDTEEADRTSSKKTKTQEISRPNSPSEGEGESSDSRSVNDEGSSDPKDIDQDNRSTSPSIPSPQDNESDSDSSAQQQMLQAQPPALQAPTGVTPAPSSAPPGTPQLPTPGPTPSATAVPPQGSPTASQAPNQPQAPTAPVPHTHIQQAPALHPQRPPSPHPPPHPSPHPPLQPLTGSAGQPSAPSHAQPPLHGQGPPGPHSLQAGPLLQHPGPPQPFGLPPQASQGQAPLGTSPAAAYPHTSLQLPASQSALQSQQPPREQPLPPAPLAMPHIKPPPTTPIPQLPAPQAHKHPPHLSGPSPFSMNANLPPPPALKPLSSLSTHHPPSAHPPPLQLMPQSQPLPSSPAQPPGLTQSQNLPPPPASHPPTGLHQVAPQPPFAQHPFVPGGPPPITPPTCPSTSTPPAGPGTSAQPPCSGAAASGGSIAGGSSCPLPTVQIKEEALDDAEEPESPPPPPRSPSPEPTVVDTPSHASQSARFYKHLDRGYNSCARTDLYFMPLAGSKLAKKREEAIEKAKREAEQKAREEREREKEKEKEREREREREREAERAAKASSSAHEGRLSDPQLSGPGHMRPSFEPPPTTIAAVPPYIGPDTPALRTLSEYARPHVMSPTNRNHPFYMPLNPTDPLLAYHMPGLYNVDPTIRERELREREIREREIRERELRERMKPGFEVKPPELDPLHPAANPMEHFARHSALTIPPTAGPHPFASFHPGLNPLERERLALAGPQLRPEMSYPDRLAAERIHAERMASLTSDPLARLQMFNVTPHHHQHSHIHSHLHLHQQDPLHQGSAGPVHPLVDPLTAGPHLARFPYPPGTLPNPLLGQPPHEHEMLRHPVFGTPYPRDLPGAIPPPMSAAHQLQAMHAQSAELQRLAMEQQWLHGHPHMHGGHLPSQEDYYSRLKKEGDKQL
T4 sequence (Q13547 whole entry, other chains not shown): as the sequence (Q13547 whole entry, species assumed) above
T4 sequence (Q9UKL0 86-485 partner limits assumed, other chains not shown): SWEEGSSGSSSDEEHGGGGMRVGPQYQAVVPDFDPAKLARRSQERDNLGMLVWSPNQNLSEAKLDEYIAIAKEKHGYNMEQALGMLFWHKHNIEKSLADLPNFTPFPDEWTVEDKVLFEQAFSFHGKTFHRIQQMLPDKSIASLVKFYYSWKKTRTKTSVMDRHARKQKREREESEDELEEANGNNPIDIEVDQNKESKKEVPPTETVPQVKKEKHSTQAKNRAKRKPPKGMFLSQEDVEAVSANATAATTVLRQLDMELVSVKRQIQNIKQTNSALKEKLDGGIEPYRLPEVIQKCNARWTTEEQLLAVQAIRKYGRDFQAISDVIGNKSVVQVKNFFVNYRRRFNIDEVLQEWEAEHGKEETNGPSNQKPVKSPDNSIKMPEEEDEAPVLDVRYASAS
T6 sequence (Q13547 whole entry): as the sequence (Q13547 whole entry, species assumed) above
T6 sequence (Q8N108 whole entry partner): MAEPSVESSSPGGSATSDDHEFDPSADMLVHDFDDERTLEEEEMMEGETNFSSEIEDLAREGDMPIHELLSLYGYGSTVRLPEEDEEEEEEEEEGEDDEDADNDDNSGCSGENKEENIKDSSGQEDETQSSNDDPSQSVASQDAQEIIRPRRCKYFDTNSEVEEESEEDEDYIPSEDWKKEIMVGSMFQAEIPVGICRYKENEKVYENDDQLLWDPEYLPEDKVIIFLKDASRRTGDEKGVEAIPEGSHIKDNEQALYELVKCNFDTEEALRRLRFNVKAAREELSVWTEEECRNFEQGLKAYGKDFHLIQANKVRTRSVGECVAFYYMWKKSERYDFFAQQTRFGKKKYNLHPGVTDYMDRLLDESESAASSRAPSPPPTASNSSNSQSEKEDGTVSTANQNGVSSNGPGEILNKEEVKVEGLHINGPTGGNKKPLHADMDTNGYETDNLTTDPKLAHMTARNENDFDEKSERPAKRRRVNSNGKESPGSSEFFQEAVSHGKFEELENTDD
T5 sequence (Q13547 whole entry): as the sequence (Q13547 whole entry, species assumed) above
T5 sequence (Q6PJG2 628-887 partner limits assumed): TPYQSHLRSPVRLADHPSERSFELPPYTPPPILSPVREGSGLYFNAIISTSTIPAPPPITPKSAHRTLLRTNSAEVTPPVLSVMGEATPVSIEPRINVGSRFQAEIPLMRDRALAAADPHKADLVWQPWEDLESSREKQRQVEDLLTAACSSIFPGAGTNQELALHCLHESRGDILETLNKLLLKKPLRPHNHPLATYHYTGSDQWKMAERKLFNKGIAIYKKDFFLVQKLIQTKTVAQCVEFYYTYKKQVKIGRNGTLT
T5 sequence (Q9H147 whole entry partner): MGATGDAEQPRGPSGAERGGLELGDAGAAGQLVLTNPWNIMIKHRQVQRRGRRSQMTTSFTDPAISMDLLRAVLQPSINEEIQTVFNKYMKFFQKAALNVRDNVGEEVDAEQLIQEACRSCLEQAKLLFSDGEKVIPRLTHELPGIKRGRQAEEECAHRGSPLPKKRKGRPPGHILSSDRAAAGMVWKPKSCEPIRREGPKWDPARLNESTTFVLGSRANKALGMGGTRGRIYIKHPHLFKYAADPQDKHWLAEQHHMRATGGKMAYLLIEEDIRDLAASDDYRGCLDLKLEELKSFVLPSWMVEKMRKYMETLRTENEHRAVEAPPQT
T3 sequence (O15379 whole entry, species assumed, one chain of several): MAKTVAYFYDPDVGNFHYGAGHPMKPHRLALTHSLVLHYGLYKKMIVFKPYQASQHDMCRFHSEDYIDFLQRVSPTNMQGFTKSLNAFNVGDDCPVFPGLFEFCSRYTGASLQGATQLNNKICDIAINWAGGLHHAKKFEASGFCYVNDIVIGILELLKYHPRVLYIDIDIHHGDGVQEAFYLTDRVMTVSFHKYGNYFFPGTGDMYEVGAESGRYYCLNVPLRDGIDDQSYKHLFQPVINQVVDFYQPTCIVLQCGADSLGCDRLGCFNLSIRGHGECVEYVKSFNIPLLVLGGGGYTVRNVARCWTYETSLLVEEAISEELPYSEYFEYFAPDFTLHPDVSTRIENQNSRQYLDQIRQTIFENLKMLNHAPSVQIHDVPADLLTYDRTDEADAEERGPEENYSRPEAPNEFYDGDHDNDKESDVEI

As to `CC(=O)N[C@@H](C)C(=O)N[C@@H](CCCNC(=N)N)C(=O)N[C@H](C(=O)N[C@@H](CCCCCC(=O)NO)C(=O)N[C@@H](CCC(N)=O)C(=O)N[C@H](C(=O)N[C@@H](C)C(N)=O)[C@@H](C)O)[C@@H](C)O` [compound 9, H3 (1-7) K4Hd] (HELM PEPTIDE1{[ac].A.R.T.[O=C([C@H](CCCCCC(=O)[*:3])N[*:1])[*:2]].Q.T.A.[am]}|CHEM1{[ON[*:1]]}$PEPTIDE1,CHEM1,5:R3-1:R1$$$V2.0), the IC50 in experiment [1] (setting [3]) worked out at 333 nM.

As for `CC(=O)N[C@H](C(=O)NCC(=O)NCC(=O)N[C@@H](CCCCCC(=O)NO)C(=O)N[C@@H](C)C(=O)N1CCC[C@H]1C(=O)N[C@@H](CCCNC(=N)N)C(N)=O)[C@@H](C)O` [compound 11, H3 (11-17) K14Hd] (HELM PEPTIDE1{[ac].T.G.G.[O=C([C@H](CCCCCC(=O)[*:3])N[*:1])[*:2]].A.P.R.[am]}|CHEM1{[ON[*:1]]}$PEPTIDE1,CHEM1,5:R3-1:R1$$$V2.0), in experiment [1] (setting [3]), the IC50 was 886 nM.

As to `CC(=O)N[C@@H](CO)C(=O)NCC(=O)N[C@@H](CCCNC(=N)N)C(=O)NCC(=O)N[C@@H](CCCCCC(=O)NO)C(=O)NCC(=O)NCC(=O)N[C@@H](CCCCN)C(N)=O` [compound 13, H4 (1-8) K5Hd] (HELM PEPTIDE1{[ac].S.G.R.G.[O=C([C@H](CCCCCC(=O)[*:3])N[*:1])[*:2]].G.G.K.[am]}|CHEM1{[ON[*:1]]}$PEPTIDE1,CHEM1,6:R3-1:R1$$$V2.0), in experiment [1] (setting [3]), the IC50 came to 633 nM.

As to `CC(=O)NCC(=O)N[C@@H](CCCCN)C(=O)NCC(=O)NCC(=O)N[C@@H](CCCCCC(=O)NO)C(=O)NCC(=O)N[C@@H](CC(C)C)C(N)=O` [compound 14, H4 (4-10) K8Hd] (HELM PEPTIDE1{[ac].G.K.G.G.[O=C([C@H](CCCCCC(=O)[*:3])N[*:1])[*:2]].G.L.[am]}|CHEM1{[ON[*:1]]}$PEPTIDE1,CHEM1,6:R3-1:R1$$$V2.0), the IC50 in experiment [1] (setting [3]) was found to be 431 nM.

With `CC(=O)N[C@@H](CCCCN)C(=O)N[C@@H](C)C(=O)N[C@@H](C)C(=O)N[C@@H](C)C(=O)N[C@@H](CCCCCC(=O)NO)C(=O)N[C@@H](CO)C(=O)N[C@@H](C)C(N)=O` [compound 22, H3(23–29)R26A K27Hd] (HELM PEPTIDE1{[ac].K.A.A.A.[O=C([C@H](CCCCCC(=O)[*:3])N[*:1])[*:2]].S.A.[am]}|CHEM1{[ON[*:1]]}$PEPTIDE1,CHEM1,6:R3-1:R1$$$V2.0), the concentration for half-maximal inhibition (IC50) in experiment [1] (setting [4]) stood at 172 nM; against RERE complex it was 464 nM; at SMRT complex (HDAC3), 110 nM; against CoREST complex it was 287 nM; against MiDAC complex, 203 nM; against MIER1 complex, 334 nM.

Consider `CC(=O)N[C@@H](C)C(=O)NCC(=O)NCC(=O)N[C@@H](C)C(=O)N[C@@H](CCCCCC(=O)NO)C(=O)N[C@@H](CCCNC(=N)N)C(=O)N[C@@H](Cc1c[nH]cn1)C(N)=O` [compound 24, H4 (12-18) K16Hd K12A] (HELM PEPTIDE1{[ac].A.G.G.A.[O=C([C@H](CCCCCC(=O)[*:3])N[*:1])[*:2]].R.H.[am]}|CHEM1{[ON[*:1]]}$PEPTIDE1,CHEM1,6:R3-1:R1$$$V2.0), for which the IC50 in experiment [1] (setting [4]) came out at 3250 nM.

For the compound `CC(=O)N[C@@H](CCCCN)C(=O)NCC(=O)NCC(=O)N[C@@H](C)C(=O)N[C@@H](CCCCCC(=O)NO)C(=O)N[C@@H](C)C(=O)N[C@@H](Cc1c[nH]cn1)C(N)=O` [compound 25, H4 (12-18) K16Hd R17A] (HELM PEPTIDE1{[ac].K.G.G.A.[O=C([C@H](CCCCCC(=O)[*:3])N[*:1])[*:2]].A.H.[am]}|CHEM1{[ON[*:1]]}$PEPTIDE1,CHEM1,6:R3-1:R1$$$V2.0), the IC50 in experiment [1] (setting [4]) was 429 nM.

As to `CC(=O)N[C@@H](CCCCN)C(=O)NCC(=O)NCC(=O)N[C@@H](C)C(=O)N[C@@H](CCCCCC(=O)NO)C(=O)N[C@@H](CCCNC(=N)N)C(=O)N[C@@H](C)C(N)=O` [compound 26, H4 (12-18) K16Hd H18A] (HELM PEPTIDE1{[ac].K.G.G.A.[O=C([C@H](CCCCCC(=O)[*:3])N[*:1])[*:2]].R.A.[am]}|CHEM1{[ON[*:1]]}$PEPTIDE1,CHEM1,6:R3-1:R1$$$V2.0), the IC50 in experiment [1] (setting [4]) amounted to 1150 nM.

As for “H3(1–7)K4Ac (ARTK(Ac)QTA-NH2; UniProt P68431 2-8, looked up, fragment) [compound 1, acetyl-lysine-containing histone H3 tail substrate peptide, C-terminal amide]”, in experiment [2], the “Initial Rate of HMR against histone peptides: Rate (% conversion min-1)” value (“Initial Rate of HMR … (% conversion min-1)” for short) is 0.18 +/- 0.009 % conversion min-1.

On to “H3(6–12)K9Ac (TARK(Ac)STG-NH2; UniProt P68431 7-13, looked up, fragment) [compound 2, acetyl-lysine-containing histone H3 tail substrate peptide, C-terminal amide]”, for which the “Initial Rate of HMR … (% conversion min-1)” value in experiment [2] was 0.40 +/- 0.013 % conversion min-1.

With “H3(11–17)K14Ac (TGGK(Ac)APR-NH2; UniProt P68431 12-18, looked up, fragment) [compound 3, acetyl-lysine-containing histone H3 tail substrate peptide, C-terminal amide]”, the “Initial Rate of HMR … (% conversion min-1)” value in experiment [2] was 0.10 +/- 0.027 % conversion min-1.

As to “H3(23–29)K27Ac (KAARK(Ac)SA-NH2; UniProt P68431 24-30, looked up, fragment) [compound 4, acetyl-lysine-containing histone H3 tail substrate peptide, C-terminal amide]”, in experiment [2], the “Initial Rate of HMR … (% conversion min-1)” value was 0.79 +/-0.075 % conversion min-1.

As to H4(1–8)K5Ac [compound 5], in experiment [2], the “Initial Rate of HMR … (% conversion min-1)” value was 0.32 +/-0.065 % conversion min-1.

For “H4(4–10)K8Ac (GKGGK(Ac)GL-NH2; UniProt P62805 5-11, looked up, fragment) [compound 6, acetyl-lysine-containing histone H4 tail substrate peptide, C-terminal amide]”, in experiment [2], the “Initial Rate of HMR … (% conversion min-1)” value was 0.16 +/-0.016 % conversion min-1.

Turning to “H4(9–15)K12Ac (GLGK(Ac)GGA-NH2; UniProt P62805 10-16, looked up, fragment) [compound 7, acetyl-lysine-containing histone H4 tail substrate peptide, C-terminal amide]”, in experiment [2], the “Initial Rate of HMR … (% conversion min-1)” value is 0.03 +/-0.020 % conversion min-1. Moreover, the Km result in experiment [2] (30 min time course, table of initial rates) is listed as “Unstable”.

In the case of “H4(12–18)K16Ac (KGGAK(Ac)RH-NH2; UniProt P62805 13-19, looked up, fragment) [compound 8, acetyl-lysine-containing histone H4 tail substrate peptide, C-terminal amide]”, the “Initial Rate of HMR … (% conversion min-1)” value in experiment [2] was 1.08 +/-0.024 % conversion min-1.

For the origin of these results see publication PMC9488896, “Hydroxamic Acid-Modified Peptide Library Provides Insights into the Molecular Basis for the Substrate Selectivity of HDAC Corepressor Complexes” (ACS Chemical Biology, 2022).
